Reference: patent US10231453B2, “5-substituted imidazole derivatives” (BAYER CROPSCIENCE AKTIENGESELLSCHAFT, priority 2015, dated 2019)
Where two headings read alike, the source gives them in different places.

Tests used:
[1] = Measurement of LogP values by HPLC on reversed phase columns (EEC directive 79/831 Annex V.A8); assay type: physicochemical; details: method [a]: LC-UV, acidic range, 0.1% formic acid in water and acetonitrile as eluent; Table 1
Experimental: Measurement of Log P values was performed as outlined above.

[2] = test system: Alternaria brassicae; test: In vivo preventive test on Alternaria brassicae (leaf spot on radish), Examples A and R1; details: Alternaria brassicae, 144 h
[3] = test system: Botrytis cinerea; test: In vivo preventive test on Botrytis cinerea (grey mould) on gherkin, Examples B, Q1 and R2; details: for pest or weed control at 500 ppm / pest or weed control at 100 ppm: Botrytis cinerea; for pest or weed control at 100 ppm: Example Q1, rate of application 100 ppm
[4] = test system: Puccinia recondita; test: In vivo preventive test on Puccinia recondita (brown rust on wheat), Examples C and R3; details: Puccinia recondita, 264 h, preventive spray, evaluated 11 days after inoculation
[5] = test system: Pyrenophora teres; test: In vivo preventive test on Pyrenophora teres (net blotch on barley), Examples D, Q2 and R4; details: Pyrenophora teres, 336 h
[6] = test system: Septoria tritici; test: In vivo preventive test on Septoria tritici (leaf spot on wheat), Examples E, Q3 and R5; details: Zymoseptoria tritici, 576 h
[7] = test system: Sphaerotheca fuliginea; test: In vivo preventive test on Sphaerotheca fuliginea (powdery mildew on cucurbits), Examples F and R6; details: Podosphaera fuliginea, 360 h, preventive spray, evaluated 15 days after inoculation
[8] = test system: Uromyces appendiculatus; test: In vivo preventive test on Uromyces appendiculatus (bean rust), Examples G and R7; details: 264 h, preventive spray, evaluated 11 days after inoculation
[9] = test system: Alternaria solani; test: In vivo preventive Alternaria test (tomatoes), Example H; details: 72 h, 100 ppm of active ingredient, preventive spray, evaluated 3 days after inoculation, read-out: efficacy
[10] = test system: Phakopsora pachyrhizi; test: In vivo preventive Phakopsora test (soybeans), Example I; details: 168 h, 100 ppm of active ingredient, preventive spray, evaluated 7 days after inoculation, read-out: efficacy
[11] = test system: Blumeria graminis fsp. hordei; test: In vivo preventive Blumeria test (barley), Example K; details: 168 h, 500 ppm of active ingredient, preventive spray, evaluated 7 days after inoculation, read-out: efficacy
Description: After the spray coating has been dried, the plants are dusted with spores of Blumeria graminis fsp. hordei.

[12] = test system: Leptosphaeria nodorum; test: In vivo preventive Leptosphaeria nodorum test (wheat), Example N; details: Parastagonospora nodorum, 192 h, 500 ppm of active ingredient, preventive spray, evaluated 8 days after inoculation, read-out: efficacy
Description: After the spray coating has been dried, the plants are sprayed with a spore suspension of Leptosphaeria nodorum.

[13] = test system: Pyricularia oryzae; test: whole plant or invertebrate; assay type: in vivo; details: 192 h, read-out: efficacy
[14] = test system: Botrytis cinerea; test: In vitro test for the calculation of the ED50-value with microorganisms, Example Q4: Botrytis cinerea; assay type: cell-based; details: liquid culture, spore suspension, 4 to 7 days incubation, spectrometric measurement of mycelium growth
[15] = test system: Leptosphaeria nodorum; test: In vitro test for the calculation of the ED50-value with microorganisms, Example Q4: Leptosphaeria nodorum; assay type: cell-based; details: liquid culture, spore suspension, 4 to 7 days incubation, spectrometric measurement of mycelium growth
[16] = test system: Septoria tritici; test: In vitro test for the calculation of the ED50-value with microorganisms, Example Q4: Septoria tritici; assay type: cell-based; details: liquid culture, spore suspension, 4 to 7 days incubation, spectrometric measurement of mycelium growth
[17] = test system: Fusarium culmorum; test: In vitro test for the calculation of the ED50-value with microorganisms, Example Q4: Fusarium culmorum; assay type: cell-based; details: liquid culture, spore suspension, 4 to 7 days incubation, spectrometric measurement of mycelium growth
Experimental: • Solvent: Dimethyl sulfoxide • Culture medium: 14.6 g anhydrous D-glucose (VWR), 7.1 g Mycological Peptone (Oxoid), 1.4 g granulated Yeast Extract (Merck), QSP liter • Inoculum: Spore suspension
Fungicides were solubilized in DMSO and the solution used to prepare the required range of concentrations. The final concentration of DMSO used in the assay was ≤1%.
A spore suspension was prepared and diluted to the desired spore density.
Fungicides were evaluated for their ability to inhibit spore germination and mycelium growth in liquid culture assay. The compounds were added in the desired concentration to the culture medium with spores. After 4 to 7 days incubation, fungi-toxicity of compounds was determined by spectrometric measurement of mycelium growth. Inhibition of fungal growth was determined by comparing the absorbance values in wells containing the fungicides with the absorbance in control wells without fungicides.

[18] = test system: Venturia inaequalis; test: In vivo preventive Venturia test (apples), Example J; details: 240 h, read-out: efficacy
Experimental: After the spray coating has dried on, the plants are inoculated with an aqueous conidia suspension of the causal agent of apple scab (Venturia inaequalis) and then remain for 1 day in an incubation cabinet at approximately 20° C. and a relative atmospheric humidity of 100%.
The plants are then placed in a greenhouse at approximately 21° C. and a relative atmospheric humidity of approximately 90%.
The test is evaluated 10 days after the inoculation.

[19] = test system: Fusarium culmorum; test: In vivo preventive Fusarium culmorum test (wheat), Example L; details: 120 h, 500 ppm of active ingredient, preventive spray, evaluated 5 days after inoculation, read-out: efficacy
Experimental: After the spray coating has been dried, the plants are slightly injured by using a sandblast and afterwards they are sprayed with a conidia suspension of Fusarium culmorum.
The test is evaluated 5 days after the inoculation.

[20] = test system: Fusarium graminearum; test: whole plant or invertebrate; assay type: in vivo; details: in Hordeum vulgare, 120 h, read-out: efficacy
[21] = test system: Fusarium nivale (var. majus); test: In vivo preventive Fusarium nivale (var. majus) test (wheat), Example O; details: Microdochium nivale, 120 h, 500 ppm of active ingredient, preventive spray, evaluated 5 days after inoculation, read-out: efficacy
Description: After the spray coating has been dried, the plants are slightly injured by using a sandblast and afterwards they are sprayed with a conidia suspension of Fusarium nivale (var. majus).

[22] = 500 ppm of active ingredient, preventive spray, evaluated 4 to 5 days after inoculation, read-out: efficacy
[23] = Example Q1, rate of application 500 ppm, read-out: Efficacy in %
[24] = Example R2, rate of application 100 ppm
[25] = Example R2, rate of application 500 ppm
[26] = 500 ppm of active ingredient, wheat, read-out: efficacy
[27] = Example R3, wheat, read-out: Efficacy in %
[28] = Example R3, wheat, 500 ppm, read-out: Efficacy in %
[29] = 500 ppm of active ingredient, preventive spray, evaluated 14 days after inoculation, read-out: efficacy
[30] = Example Q2, rate of application 100 ppm, read-out: Efficacy in %
[31] = Example Q2, rate of application 500 ppm, read-out: Efficacy in %
[32] = Example R4, rate of application 100 ppm, read-out: Efficacy in %
[33] = Example R4, rate of application 500 ppm, read-out: Efficacy in %
[34] = 500 ppm of active ingredient, wheat, preventive spray, evaluated 24 days after inoculation, read-out: efficacy
[35] = Example Q3, rate of application 100 ppm, wheat, read-out: Efficacy in %
[36] = Example Q3, rate of application 500 ppm, wheat, read-out: Efficacy in %
[37] = Example R5, wheat, preventive spray, 100 ppm, evaluated 24 days after inoculation, read-out: Efficacy in %
[38] = Example R5, wheat, preventive spray, 500 ppm, evaluated 24 days after inoculation, read-out: Efficacy in %
[39] = 500 ppm of active ingredient, gherkin, read-out: efficacy
[40] = Example R6, gherkin, read-out: Efficacy in %
[41] = Example R6, gherkin, 500 ppm, read-out: Efficacy in %
[42] = 500 ppm of active ingredient, bean, read-out: efficacy
[43] = Example R7, bean, read-out: Efficacy in %
[44] = Example R7, bean, 500 ppm, read-out: Efficacy in %

| SMILES | pest or weed control at 500 ppm [3, 22] [%] | pest or weed control at 100 ppm ([3]; read-out: Efficacy in %) [%] | pest or weed control at 500 ppm [3, 23] [%] | Efficacy in % [3, 24] [%] | Efficacy in % [3, 25] [%] | pest or weed control at 500 ppm [4, 26] [%] | pest or weed control at 100 ppm [4, 27] [%] | pest or weed control at 500 ppm [4, 28] [%] | pest or weed control at 500 ppm [5, 29] [%] | pest or weed control at 100 ppm [5, 30] [%] | pest or weed control at 500 ppm [5, 31] [%] | pest or weed control at 100 ppm [5, 32] [%] | pest or weed control at 500 ppm [5, 33] [%] | pest or weed control at 500 ppm [6, 34] [%] | pest or weed control at 100 ppm [6, 35] [%] | pest or weed control at 500 ppm [6, 36] [%] | pest or weed control at 100 ppm [6, 37] [%] | pest or weed control at 500 ppm [6, 38] [%] | pest or weed control at 500 ppm [7, 39] [%] | pest or weed control at 100 ppm [7, 40] [%] | also measured |
| --- | --- | --- | --- | --- | --- | --- | --- | --- | --- | --- | --- | --- | --- | --- | --- | --- | --- | --- | --- | --- | --- |
| OC(Cc1ccc(Cl)cc1F)(Cn1cncc1Cl)C1(Cl)CC1 (centres unmarked) [Example I-27, 2-(1-chlorocyclopropyl)-1-(4-chloro-2-fluorophenyl)-3-(5-chloro-1H-imidazol-1-yl)propan-2-ol] | 90 to 100 | 99 | 100 | 99 | 100 | 90 to 100 | 89 | 98 | 90 to 100 | 94 | 98 | 94 | 98 | 90 to 100 | 81 | 94 | 94 | 81 | 90 to 100 | 100 | chromatographic logP [1]: 2.48; pest or weed control at 500 ppm ([2]; 500 ppm of active ingredient, preventive spray, evaluated 6 days after inoculation, read-out: efficacy): 90 to 100%; pest or weed control at 100 ppm ([2]; Example R1, rate of application 100 ppm, read-out: Efficacy in %): 50%; pest or weed control at 500 ppm ([2]; Example R1, rate of application 500 ppm, read-out: Efficacy in %): 92%; pest or weed control at 500 ppm [7, 41]: 100%; pest or weed control at 500 ppm [8, 42]: 90 to 100%; pest or weed control at 100 ppm [8, 43]: 20%; pest or weed control at 500 ppm [8, 44]: 100%; pest or weed control at 100 ppm [9]: 90 to 100%; pest or weed control at 100 ppm [10]: 90 to 100%; pest or weed control at 500 ppm [11]: 90 to 100%; pest or weed control at 500 ppm [12]: 90 to 100%; pest or weed control at 500 ppm [13]: 90 to 100%; Botrytis cinerea ED50 value in ppm [14]: 0.02 ppm; Leptosphaeria nodorum ED50 value in ppm [15]: <0.006 ppm; Septoria tritici ED50 value in ppm [16]: <0.006 ppm; Fusarium culmorum ED50 value in ppm [17]: <0.006 ppm; pest or weed control at 100 ppm [18]: 90 to 100% |
| N#Cc1cncn1CC(O)(Cc1ccc(Cl)cc1F)C1(Cl)CC1 (centres unmarked) [Example I-29] | 90 to 100 | 86 | 99 | 86 | 99 | 90 to 100 | 94 | 98 | 80 to 89 | 83 | 89 | 83 | 89 | 90 to 100 | 100 | 100 | 100 | 100 | 90 to 100 | 100 | pest or weed control at 500 ppm [7, 41]: 100%; pest or weed control at 500 ppm [8, 42]: 90 to 100%; pest or weed control at 100 ppm [8, 43]: 100%; pest or weed control at 500 ppm [8, 44]: 100%; pest or weed control at 100 ppm [9]: 90 to 100%; pest or weed control at 100 ppm [10]: 90 to 100%; pest or weed control at 500 ppm [11]: 90 to 100%; pest or weed control at 500 ppm [19]: 80 to 89%; pest or weed control at 500 ppm [20]: 90 to 100%; pest or weed control at 500 ppm [12]: 90 to 100%; pest or weed control at 500 ppm [21]: 90 to 100%; Botrytis cinerea ED50 value in ppm [14]: 0.26 ppm; Leptosphaeria nodorum ED50 value in ppm [15]: 0.02 ppm; Septoria tritici ED50 value in ppm [16]: <0.006 ppm; Fusarium culmorum ED50 value in ppm [17]: 0.01 ppm; pest or weed control at 100 ppm [18]: 90 to 100% |
